In brackets after ≈: the same amount, converted by molar mass. A value given as a limit tells only on which side of the number the result lay.

The conditions of this data set: buffer; pH 7.4; 200.0 µM.
One may read the solubility (kinetic) as the concentration staying in solution when a stock, usually in DMSO, is diluted into the medium. For `CN(C)c1ccc(/C=C(/NC(=O)c2ccccc2)C(=O)N2CCCC2)cc1`, the solubility (kinetic) is 47.7 µg/mL (≈ 131 µM).
Under `CCc1cc2c(SCc3ccc(C(=O)OC)o3)ncnc2s1` stands 1.8 µg/mL (≈ 5.38 µM); under `CC1(/[N+]([O-])=C/c2cccc(Cl)c2)CCCCC1=O` (centres undefined), 36.2 µg/mL (≈ 136 µM); under `Cn1cccc1/C=C1/SC(=O)N(CC(=O)N2CCCC2)C1=O`, 15.2 µg/mL (≈ 47.6 µM).
Consider `O=C(Nc1cc([N+](=O)[O-])ccc1O)c1cccc([N+](=O)[O-])c1`, for which the solubility (kinetic) is 37.1 µg/mL (≈ 122 µM).
Under `CC(C)(C)c1ccccc1NC(=O)c1cc(-c2ccncc2)nc2ccccc12` stands 10.8 µg/mL (≈ 28.3 µM).
`Cc1noc(C)c1COC(=O)/C=C/c1ccccc1Cl` returned a solubility (kinetic) of 6.8 µg/mL (≈ 23.3 µM).
In the case of `Cc1nc(-c2ccccc2)nc2sc(C(=O)c3ccc(F)cc3)c(N)c12`, the kinetic solubility amounted to 1.5 µg/mL (≈ 4.13 µM).
On to `CC(C(=O)O/N=C(\N)c1ccccn1)c1ccc([N+](=O)[O-])cc1` (centres undefined), for which the kinetic solubility is > 47.1 µg/mL.
On to `Cc1ccn2cc(-c3cccc(NC(=O)CCC(=O)O)c3)nc2c1`, for which the solubility (kinetic) is > 48.5 µg/mL.
Under `O=C(Cc1ccccc1)Nc1ccccc1C(=O)N1CCCCC1` stands > 48.4 µg/mL.
For the compound `CSc1nc2ncnc(N)c2[nH]1`, the solubility (kinetic) is > 27.2 µg/mL.
The value for `CC(Cc1ccccc1)C(=O)Nc1ccc(Br)cc1` (centres undefined) was 3.2 µg/mL (≈ 10.1 µM); that for `Cc1cc(C(=O)N2CCN(c3ccccc3O)CC2)c(C)o1` was > 45.1 µg/mL; that for `S=C1NCN(Cc2ccccc2)CN1` was > 31.1 µg/mL.
As to `Cc1c(C(=O)N2CCOCC2)sc(NC(=O)CCl)c1C#N`, the kinetic solubility was > 49.2 µg/mL.
Under `N/C(=N\OC(=O)/C=C/c1ccccc1Cl)c1ccncc1` stands 28.2 µg/mL (≈ 93.5 µM); under `CCC(C)c1ccccc1NC(=O)c1cc(C)no1` (centres undefined), > 38.7 µg/mL.
The value for `Cc1cc(=O)[nH]c(SCc2ccc(Cl)cc2Cl)n1` was 1.2 µg/mL (≈ 3.98 µM).
Under `CC(=O)c1ccc(OCC(C)Oc2ccc(C#N)cc2)cc1` (centres undefined) stands 23.3 µg/mL (≈ 78.9 µM); under `COc1ccc(S(=O)(=O)Nc2cc(C)on2)cc1NC(C)=O`, > 48.8 µg/mL; under `O=c1cc(NCc2ccccc2)[nH]c(=O)[nH]1`, > 32.6 µg/mL.
For the compound `COC(=O)C(=CC(=CN(C)C)C=C(C(=O)OC)C(=O)OC)C(=O)OC`, the kinetic solubility is > 53.3 µg/mL.
The compound `COc1ccc(NC(=O)C2CCCN(c3ncccn3)C2)cc1` (centres undefined) displayed a kinetic solubility of 14.5 µg/mL (≈ 46.4 µM).
`CC(=O)NC1c2ccccc2C(=O)N1Cc1ccccc1` (centres undefined) came in with a kinetic solubility of 39.9 µg/mL (≈ 142 µM).
In the case of `CCN1CCN(C(=S)NC(=O)c2cccs2)CC1`, the solubility (kinetic) was > 42.5 µg/mL.
As to `O=C(NCCc1c[nH]c2ccccc12)/C(=C/c1cccnc1)NC(=O)c1ccco1`, the kinetic solubility is > 60.1 µg/mL.
As to `COc1ccc(NC(=O)c2cccc(NS(=O)(=O)c3ccccc3)c2)cc1`, the kinetic solubility came to 34.2 µg/mL (≈ 89.4 µM).
The value for `CCN(CC)C(=S)Nc1ccc(C(=O)OC)cc1` was > 40 µg/mL.
The value for `Cc1cc(S(=O)(=O)Nc2cccnc2)c(Cl)cc1Cl` was 4.5 µg/mL (≈ 14.2 µM).
Under `COc1ccc(NC(=O)c2cc3ccccc3o2)cc1OC` stands 7.9 µg/mL (≈ 26.6 µM).
The compound `CC(c1ccccc1)n1c(S(=O)(=O)O)nc2ccccc21` (centres undefined) had a kinetic solubility of 43.7 µg/mL (≈ 145 µM).
Consider `CNCCc1ccccn1.Cl`, for which the kinetic solubility is > 31.4 µg/mL.
Under `CCc1ccc(N2CC(C(=O)N3CCCCCC3)CC2=O)cc1` (centres undefined) stands > 47.2 µg/mL.
The value for `O=C(O)c1ccccc1Nc1ccnc(Cl)n1` was > 37.4 µg/mL; that for `O=C(CCl)Nc1ccccc1C(=O)c1ccccc1` was > 41.1 µg/mL.
The value for `CCOc1ccccc1NC(=S)N1CCCc2ccccc21` was 10.5 µg/mL (≈ 33.6 µM); that for `C=C(C)C(=O)Nc1cccnc1Oc1ccc(F)cc1` was > 40.8 µg/mL; that for `Cc1ccc(OCC(=O)N2CCN(C(=O)c3ccncc3)CC2)cc1` was > 50.9 µg/mL.
`O=C(/C=C/c1cccc(F)c1)OCC(=O)N1CCc2ccccc21` yielded a solubility (kinetic) of 3.2 µg/mL (≈ 9.84 µM).
For `CC1CN(C(=O)CCNC(=O)c2ccccc2Cl)CC(C)O1` (centres undefined), the kinetic solubility is > 48.7 µg/mL.
In the case of `O=C(Nc1cccc(NC(=O)c2ccco2)c1)c1ccccc1`, the kinetic solubility was 45.9 µg/mL (≈ 150 µM).
The value for `CC1CCN(CC(=O)NC2CCCCC2)CC1.Cl` was 37.4 µg/mL; that for `CC1CCCCC1NC(=O)CO/N=C/c1ccc(OC(F)F)cc1` (centres undefined) was 8.7 µg/mL (≈ 25.6 µM); that for `CC(C)CC1C(C#N)=C(N)OC2=C1C(=O)CC(c1ccccc1)C2` (centres undefined) was 37.6 µg/mL (≈ 117 µM).
`Cc1ccc(S(=O)(=O)c2c(C)cc(C)nc2N2CCCC2)cc1` registered a kinetic solubility of 1.2 µg/mL (≈ 3.63 µM).
With `O=C(c1cccc(C(F)(F)F)c1)N1CCc2c([nH]c3ccccc23)C1C(F)(F)F` (centres undefined), the solubility (kinetic) is < 0.4 µg/mL.
On to `CC(C)CNC(=O)CCc1nc(-c2ccccc2)no1`, for which the solubility (kinetic) was 37.7 µg/mL (≈ 138 µM).
Under `COc1ccccc1CNS(=O)(=O)c1cccs1` stands > 42.5 µg/mL; under `COc1ccc(C(C)NC(=O)CC23CC4CC(CC(C4)C2)C3)cc1` (centres undefined), 19.7 µg/mL (≈ 60.2 µM).
As to `Cc1cc(CNC(=S)Nc2cccc(Cl)c2Cl)nn1C`, the kinetic solubility is > 49.4 µg/mL.
Under `CN1CCN(C(=O)C2CCC(C)(C(=O)O)C2(C)C)CC1` (centres undefined) stands 40.5 µg/mL (≈ 143 µM); under `Cc1noc(C)c1C(=O)N1CCC(C(=O)c2ccc(F)cc2F)CC1`, > 52.3 µg/mL.
The value for `CC(C)c1ccc(NC2CCCN(C(=O)c3ccoc3)C2)cc1` (centres undefined) was > 46.9 µg/mL.
Under `CC(C)CNC(=O)C1CCCN(C(=O)NCc2ccccc2)C1` (centres undefined) stands > 47.6 µg/mL; under `O=C(COc1ccc2ccc(=O)oc2c1)Nc1cccnc1`, 14.2 µg/mL (≈ 47.9 µM); under `CCc1cccc(CC)c1-n1c(SCC(=O)N2CCCc3ccccc32)nc(O)cc1=O`, > 67.4 µg/mL.
Consider `Nc1c(NCCc2ccccc2)c2ccccc2oc1=O`, for which the solubility (kinetic) is > 42 µg/mL.
For the compound `CN1CCN(CC(=O)Nc2ccccc2Oc2ccccc2)CC1`, the kinetic solubility was > 48.8 µg/mL.
Under `COc1ccccc1CN(C)C(=O)c1cnc(C)cn1` stands > 40.7 µg/mL; under `O=C(NC(=S)N1CCN(c2ccccc2)CC1)c1ccccc1`, 6.4 µg/mL (≈ 19.7 µM).
Under `COC(=O)c1cccc(Nc2ccc([N+](=O)[O-])cn2)c1` stands 0.3 µg/mL (≈ 1.1 µM); under `COc1ccc(NC(=O)CCc2nc3ccccc3c(=O)[nH]2)cc1S(=O)(=O)N1CCCCC1`, 9.6 µg/mL (≈ 20.4 µM).
In turn, `CCOc1ccc(NC(=S)Nc2cccc3ccccc23)cc1` registered a kinetic solubility of 2 µg/mL (≈ 6.2 µM). This solubility kinetic lies about 4.8-fold lower than the previous one.
The value for `COc1ccc(CCNC(=O)C(=O)c2c(C)[nH]c3ccccc23)cc1` was 0.5 µg/mL (≈ 1.49 µM); that for `O=c1[nH]c2cccc(F)c2n2cccc12` was 3.2 µg/mL (≈ 15.8 µM); that for `NC(N)=NS(=O)(=O)c1ccc(NC(=S)NC(=O)c2ccccc2)cc1` was 3.9 µg/mL (≈ 10.3 µM).
With `CSc1sccc1/C=C(/C#N)C(=O)c1ccco1`, the solubility (kinetic) worked out at 22.6 µg/mL (≈ 82.1 µM).
Under `O=C(NCCc1ccc(Cl)cc1)C1COc2ccccc2O1` (centres undefined) stands 5.5 µg/mL (≈ 17.3 µM); under `CC(OC(=O)c1ccc(Cl)nc1)C(=O)NC1CCCC1` (centres undefined), 24.7 µg/mL (≈ 83.2 µM); under `CCc1ccc(OCC2Cn3c(nc4c3c(=O)[nH]c(=O)n4C)O2)cc1` (centres undefined), 3.8 µg/mL (≈ 11.1 µM).
The value for `C/[N+]([O-])=C/c1c(OCc2ccccc2)ccc2ccccc12` was > 43.7 µg/mL; that for `COc1ccc(C)cc1NC(=S)N1CCN(c2ncccn2)CC1` was 47.4 µg/mL (≈ 138 µM).
On to `CCCn1c(SCC(=O)NCCCN2CCCC2=O)nc2ccccc2c1=O`, for which the solubility (kinetic) was > 60.4 µg/mL.
Under `COCCNc1ncnc2c1nc1n2CCCC1` stands > 37.1 µg/mL.
For `CC(Oc1ccc(Cl)cc1)C(=O)Nc1ccccc1N1CCOCC1` (centres undefined), the kinetic solubility turned out to be 10.1 µg/mL (≈ 28 µM).
Under `Cc1cc(NC(=O)CSc2nc3cc(Cl)ccc3o2)no1` stands 0.5 µg/mL (≈ 1.54 µM); under `COc1ccccc1C(=O)NCCCNC(=O)c1cccnc1`, 36.8 µg/mL (≈ 117 µM); under `CCOc1ncccc1C(=O)Nc1ccc2nc(C)sc2c1`, 4.2 µg/mL (≈ 13.4 µM).
As for `O=C(OC1CCOC1=O)c1cc(Cl)ccc1[N+](=O)[O-]` (centres undefined), the solubility (kinetic) came to 42.1 µg/mL (≈ 147 µM). Compared with the last compound, the solubility kinetic is about 10-fold higher.
`CC(=O)Nc1ccc(NC(=O)c2c(-c3ccccc3)noc2C)cn1`: the solubility (kinetic) amounted to 11.1 µg/mL (≈ 33 µM). Against the preceding compound, the solubility kinetic is about 3.8-fold lower.
As for `Cc1cccc(CCNCc2cc3cc(C)cc(C)c3[nH]c2=O)c1`, the kinetic solubility came to 42.5 µg/mL (≈ 133 µM).
`O=S(=O)(NCCNc1nccc(C(F)(F)F)n1)c1ccccc1` gave a solubility (kinetic) of 50.2 µg/mL (≈ 145 µM).
Under `NC(=O)c1ccc[n+](CC(=O)c2ccc(F)cc2)c1.[Br-]` stands > 50.9 µg/mL.
`C/C(=C\c1ccccc1)C(=O)Nc1ccc(Cl)cn1`: the solubility (kinetic) was found to be 7.2 µg/mL (≈ 26.4 µM).
The value for `C=CC[N+]1(CC=C)CCOCC1.[Br-]` was > 37.2 µg/mL.
The value for `CSCC(CO)NS(=O)(=O)c1ccc(C)cc1` (centres undefined) was > 41.3 µg/mL; that for `Cc1ccc(CNc2ncnc3cc(Cl)ccc23)cc1` was 5 µg/mL (≈ 17.6 µM); that for `Cc1cccc(N=C2NC(=O)/C(=C/c3cccnc3)S2)c1C` was 5.1 µg/mL (≈ 16.5 µM).
The value for `Cc1cc(/C(N)=N/OC(=O)Nc2ccccc2)no1` was 15.7 µg/mL (≈ 60.3 µM); that for `COCCNC(=O)CSc1nccn1Cc1ccc2c(c1)OCO2` was > 52.4 µg/mL.
Compound `CN(C)c1ccc(C2CC(=O)C=C(Nc3ccccc3N)C2)cc1` (centres undefined) returned a solubility (kinetic) of 48.2 µg/mL (≈ 150 µM).
The value for `CC(Oc1ccccc1)C(=O)Nc1cccc([N+](=O)[O-])c1` (centres undefined) was > 42.9 µg/mL.
For the compound `C=CCn1c(N2CCOCC2)nc2c1c(=O)[nH]c(=O)n2C`, the solubility (kinetic) was > 43.7 µg/mL.
The value for `CC(=O)c1ccc2noc(-c3cccc(F)c3)c2c1` was 6.5 µg/mL (≈ 25.5 µM); that for `CCOC(=O)C1=C(COC(=O)Cc2ccccc2)NC(=O)NC1C` (centres undefined) was > 49.9 µg/mL; that for `Cc1ccc(C)n1-c1ccc(N2CCOCC2)c([N+](=O)[O-])c1` was 29.3 µg/mL (≈ 97.2 µM).
In the case of `CCCCC(CC)C(=O)Nc1cc(=O)[nH]c2nc3ccccc3n12` (centres undefined), the solubility (kinetic) is 1.9 µg/mL (≈ 5.82 µM). This solubility kinetic lies about 15-fold lower than the previous one.
`N#Cc1ccccc1OCC(=O)Nc1ccc(S(=O)(=O)N2CCOCC2)cc1` displayed a kinetic solubility of 6.9 µg/mL (≈ 17.2 µM).
The value for `Cc1ccc(S(=O)(=O)N2CCCc3ccccc32)cc1C` was 2.3 µg/mL (≈ 7.63 µM); that for `Cc1cc(C)c(C(N)=O)c(Nc2ccc(F)cc2)n1` was > 38.9 µg/mL; that for `CC(NC(=O)CN1CCN(c2ccccc2F)CC1)c1ccccc1` (centres undefined) was 46.3 µg/mL (≈ 136 µM).
The compound `Cc1cccc(CN2CCN(c3ncccn3)CC2)c1` showed a solubility (kinetic) of 30.6 µg/mL (≈ 114 µM).
For the compound `CCOc1ncccc1C(=O)OCC(=O)Nc1ccc2c(c1)CCC2`, the solubility (kinetic) was 8.1 µg/mL (≈ 23.8 µM).

For the origin of these results see PubChem BioAssay AID1996.
